Measurements as given in paper PMC10557102 (Pharmacology Research & Perspectives, 2023).
Where two headings read alike, the source gives them in different places.

Columns and labels:
CYP2C9 [1] = molecular target: T1, CYP2C9 (Homo sapiens, UniProt P11712); assay: Competitive; assay type: in vitro ADME
CYP3A4 [2] = molecular target: T2, CYP3A4 (Homo sapiens, UniProt P08684); assay: Covalent binding; assay type: in vitro ADME
healthy subjects = assay: Safety and tolerability in the clinical study
CYP2C19 [3] = molecular target: T3, CYP2C19 (Homo sapiens, UniProt P33261); assay: Covalent binding; assay type: in vitro ADME; conditions: data not shown
T3 sequence (P33261 whole entry): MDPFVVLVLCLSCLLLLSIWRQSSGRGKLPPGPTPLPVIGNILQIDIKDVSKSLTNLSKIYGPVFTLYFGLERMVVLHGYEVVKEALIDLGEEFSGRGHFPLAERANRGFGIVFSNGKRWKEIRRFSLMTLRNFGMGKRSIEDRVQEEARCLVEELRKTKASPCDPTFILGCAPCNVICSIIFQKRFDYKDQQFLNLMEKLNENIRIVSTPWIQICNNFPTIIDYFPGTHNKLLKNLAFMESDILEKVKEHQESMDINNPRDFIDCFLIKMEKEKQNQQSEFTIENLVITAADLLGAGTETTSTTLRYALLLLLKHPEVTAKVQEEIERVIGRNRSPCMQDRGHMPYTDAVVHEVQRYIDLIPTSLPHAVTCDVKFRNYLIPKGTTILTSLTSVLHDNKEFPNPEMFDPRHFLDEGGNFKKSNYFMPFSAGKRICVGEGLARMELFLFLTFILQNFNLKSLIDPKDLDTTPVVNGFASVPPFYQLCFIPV

CYP3A4 [4] = molecular target: T2, CYP3A4; assay: Cocktail DDI study: PK of midazolam and 1-OH midazolam with/without nivasorexant
CYP2C19 [5] = molecular target: T3, CYP2C19
CYP2C8 = molecular target: T4, CYP2C8 (Homo sapiens, UniProt P10632); assay: Competitive; assay type: in vitro ADME
T4 sequence (P10632 1-490): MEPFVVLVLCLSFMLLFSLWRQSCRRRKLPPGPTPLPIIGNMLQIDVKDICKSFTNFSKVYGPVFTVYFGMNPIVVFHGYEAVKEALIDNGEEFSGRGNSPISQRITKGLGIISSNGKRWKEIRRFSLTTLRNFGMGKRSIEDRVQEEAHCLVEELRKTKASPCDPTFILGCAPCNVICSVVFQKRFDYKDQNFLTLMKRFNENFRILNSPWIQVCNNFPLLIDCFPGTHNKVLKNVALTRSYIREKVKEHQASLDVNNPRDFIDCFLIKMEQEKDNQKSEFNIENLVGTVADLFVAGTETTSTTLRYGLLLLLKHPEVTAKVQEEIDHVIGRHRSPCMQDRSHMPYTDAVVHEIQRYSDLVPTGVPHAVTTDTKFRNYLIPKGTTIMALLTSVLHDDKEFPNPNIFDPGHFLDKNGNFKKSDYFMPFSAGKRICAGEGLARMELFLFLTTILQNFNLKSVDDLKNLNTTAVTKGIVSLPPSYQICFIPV

CYP2B6 [6] = molecular target: T5, CYP2B6 (Homo sapiens, UniProt P20813); assay: Competitive; assay type: in vitro ADME
T5 sequence (P20813 1-491): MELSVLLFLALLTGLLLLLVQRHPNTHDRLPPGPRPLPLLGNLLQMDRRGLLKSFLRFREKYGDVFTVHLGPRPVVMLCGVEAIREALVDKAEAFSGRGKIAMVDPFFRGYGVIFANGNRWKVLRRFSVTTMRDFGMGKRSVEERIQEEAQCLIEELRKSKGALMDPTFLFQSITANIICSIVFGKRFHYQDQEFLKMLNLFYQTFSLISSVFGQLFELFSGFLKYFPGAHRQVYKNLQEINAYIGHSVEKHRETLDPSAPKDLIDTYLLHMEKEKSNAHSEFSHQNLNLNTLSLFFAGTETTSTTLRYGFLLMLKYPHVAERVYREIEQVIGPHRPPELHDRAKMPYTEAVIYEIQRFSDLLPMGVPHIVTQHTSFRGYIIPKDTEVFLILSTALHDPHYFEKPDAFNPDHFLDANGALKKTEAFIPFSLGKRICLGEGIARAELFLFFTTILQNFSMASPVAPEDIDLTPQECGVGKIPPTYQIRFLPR

[7] = cited from earlier work
CYP2B6 [8] = molecular target: T5, CYP2B6; assay: Time-dependent; assay type: in vitro ADME; conditions: 30 min pre‐incubation with/without NADPH; bupropion hydroxylation
CYP3A4 [9] = molecular target: T2, CYP3A4; assay: Competitive; assay type: in vitro ADME
CYP3A4 [10] = molecular target: T2, CYP3A4; assay: Time-dependent; assay type: in vitro ADME; conditions: for IC50 shift: 30 min pre‐incubation with/without NADPH
CYP2A6 = molecular target: T6, CYP2A6 (Homo sapiens, UniProt P11509); assay: Competitive; assay type: in vitro ADME
T6 sequence (P11509 1-494): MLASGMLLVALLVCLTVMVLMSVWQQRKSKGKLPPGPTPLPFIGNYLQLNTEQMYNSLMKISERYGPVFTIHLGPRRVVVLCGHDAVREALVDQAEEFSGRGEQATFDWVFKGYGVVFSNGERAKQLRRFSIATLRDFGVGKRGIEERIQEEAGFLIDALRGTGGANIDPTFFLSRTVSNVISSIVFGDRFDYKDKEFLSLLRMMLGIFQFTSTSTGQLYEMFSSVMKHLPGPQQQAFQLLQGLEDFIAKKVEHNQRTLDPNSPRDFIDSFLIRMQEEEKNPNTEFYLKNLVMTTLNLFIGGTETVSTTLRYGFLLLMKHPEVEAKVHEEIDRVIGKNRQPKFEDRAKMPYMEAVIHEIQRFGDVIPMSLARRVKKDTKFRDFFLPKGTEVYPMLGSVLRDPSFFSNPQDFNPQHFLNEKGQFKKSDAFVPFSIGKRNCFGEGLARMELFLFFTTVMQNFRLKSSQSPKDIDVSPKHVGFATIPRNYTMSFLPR

CYP2C9 [11] = molecular target: T1, CYP2C9; assay: Covalent binding; assay type: in vitro ADME
[12] = after 8 days / repeated 100 mg b.i.d., steady state

T1 sequence (P11712 whole entry): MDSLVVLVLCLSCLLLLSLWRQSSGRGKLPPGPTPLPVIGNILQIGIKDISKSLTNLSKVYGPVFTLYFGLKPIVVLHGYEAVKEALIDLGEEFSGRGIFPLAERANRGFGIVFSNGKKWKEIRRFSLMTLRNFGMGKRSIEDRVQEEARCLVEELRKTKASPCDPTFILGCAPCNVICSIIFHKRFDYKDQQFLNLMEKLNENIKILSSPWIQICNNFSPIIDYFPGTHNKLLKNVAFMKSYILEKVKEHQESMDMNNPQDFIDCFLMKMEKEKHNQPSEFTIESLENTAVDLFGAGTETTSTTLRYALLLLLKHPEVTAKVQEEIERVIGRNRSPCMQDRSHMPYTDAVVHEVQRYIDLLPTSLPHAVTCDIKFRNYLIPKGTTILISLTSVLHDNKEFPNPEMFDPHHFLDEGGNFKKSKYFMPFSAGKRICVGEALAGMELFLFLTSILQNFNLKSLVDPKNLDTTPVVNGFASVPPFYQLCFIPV
T2 sequence (P08684 whole entry): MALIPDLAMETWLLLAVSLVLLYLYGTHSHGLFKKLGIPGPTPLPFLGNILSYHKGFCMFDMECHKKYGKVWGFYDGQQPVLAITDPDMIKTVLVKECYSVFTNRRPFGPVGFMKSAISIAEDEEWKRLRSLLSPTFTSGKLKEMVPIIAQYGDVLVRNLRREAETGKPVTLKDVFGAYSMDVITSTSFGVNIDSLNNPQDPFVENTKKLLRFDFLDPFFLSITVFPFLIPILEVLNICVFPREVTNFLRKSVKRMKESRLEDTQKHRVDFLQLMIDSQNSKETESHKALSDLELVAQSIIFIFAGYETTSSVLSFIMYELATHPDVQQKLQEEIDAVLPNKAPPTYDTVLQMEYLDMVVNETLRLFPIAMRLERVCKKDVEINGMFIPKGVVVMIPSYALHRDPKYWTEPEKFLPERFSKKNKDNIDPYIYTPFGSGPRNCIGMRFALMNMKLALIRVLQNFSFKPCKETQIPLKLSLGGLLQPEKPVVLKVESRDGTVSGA

Cc1ccc(C(=O)N2CCOC[C@H]2Cc2cccc(-n3nccn3)c2)c(-n2nccn2)c1 [nivasorexant]
IC50 (CYP2C9 [1]): 8.6 µM
Ki (CYP2C9 [1]): 5 µM
covalent binding (in words) (CYP3A4 [2]): covalent binding
safety and tolerability (in words) (healthy subjects; Day 1 to Day 15, healthy subjects): safe and well tolerated
somnolence, subjects (%) (healthy subjects; Treatment B: cocktail + initial 100 mg nivasorexant, Day 8): 1 (4.5%) subjects (%)
somnolence, subjects (%) (healthy subjects; Treatment C: nivasorexant 100 mg b.i.d. alone, Day 9–14): 2 (9.1%) subjects (%)
somnolence, subjects (%) (healthy subjects; Treatment D: cocktail + nivasorexant at steady state, Day 15): 5 (23.8%) subjects (%)
covalent binding (in words) (CYP2C19 [3]): covalently binds
CYP3A4 inhibitor classification according to regulatory guidance (CYP3A4 [4]; after 1 day of 100 mg b.i.d.): weak (≥1.25‐ to <2‐fold)
CYP3A4 inhibitor classification according to regulatory guidance (CYP3A4 [4]; [12]): moderate (≥ 2‐ to <5‐fold)
CYP2C19 inhibitor classification according to regulatory guidance (CYP2C19 [5]; after 1 day of 100 mg b.i.d.): moderate (≥ 2‐ to <5‐fold)
CYP2C19 inhibitor classification according to regulatory guidance (CYP2C19 [5]; [12]): strong (≥5‐fold)
IC50 (CYP2C8): 25 µM
IC50 (CYP2B6 [6]): > 100 µM
apparent mean terminal half‐life (t ½) ([7]; across dose levels, healthy subjects): 3.3 to 6.5 h
dose proportionality of AUCτ ([7]; multiple oral administration): dose proportional
dose proportionality of C max ([7]; multiple oral administration): less than dose proportional
IC50 shift (CYP2B6 [8]): none
IC50 (CYP3A4 [9]): 44 µM
IC50 (CYP3A4 [9]; IC50 (range over both probe substrates), midazolam and testosterone as probes): 19 to 44 µM
IC50 (CYP3A4 [9]; IC50, human liver microsomes, midazolam 1′‐hydroxylation): 19 µM
IC50 shift (CYP3A4 [10]; midazolam 1′‐hydroxylation): none
IC50 shift (CYP3A4 [10]; testosterone 6β‐hydroxylation): none
effect of pre‐incubation on CYP3A4 activity (in words, probe not stated) (CYP3A4 [10]; time‐dependent inhibition assay): no pre‐incubation effect
IC50 (CYP2A6): > 100 µM
covalent binding (in words) (CYP2C9 [11]): covalent binding
